# Laboratory results taken from patent publication US10413535B2, “Pharmaceutical compositions comprising an integrin ALPHA4 antagonist for use in treating ocular inflammatory conditions” (AXEROVISION, INC., priority 2015, dated 2019).
# Values joined by “and” are separate entries in the source; they are usually repeats but may differ in a detail not shown here. Identical values can stand only once. Like-named read-outs stand apart in the source and are kept apart here.
# Assays:
# [1] = test system: IL-1α, MMP-9, CXCL9, TGF-β1 expression; assay: Inflammatory marker gene expression in cornea and conjunctiva (real time PCR), desiccating stress model; format: in vivo, mouse; details: topical 30 mg/mL, 5 days DS, vs vehicle
# Experimental: Female C57BL/6 mice, aged 6 to 8 weeks, were subjected to DS for 5 days (DS5) as described previously (de Paiva et al., 2006b; Niederkorn et al., 2006). Topical bilateral treatment with 1 eye drop per eye (2 μL volume) or subcutaneous injection (4 μL volume), 2 times per day, was initiated on day 1 concurrently with DS and continued through day 4. Treatment with the compound of formula I or dexamethasone phosphate 0.1% was compared to correspondingly treated vehicle controls. Mice were randomized to receive one of the test articles. Control mice were kept in a non-stressed (NS) environment maintained at 50-75% relative humidity without exposure to airflow or scopolamine and were not treated with test or control article. Treatment effects were assessed on corneal staining with Oregon Green Dextran (OGD); expression of inflammatory markers in ocular surface tissues by real time PCR; cell population analysis in draining cervical lymph nodes by FACS analysis; conjunctival T cell infiltration by immunohistochemistry.
# Total RNA was isolated from corneal and conjunctival epithelia that was collected and pooled from 2 eyes (right and left) at each time point from untreated control mice, mice subjected to DS for 5 days (DS5), DS5 mice topically treated with the compound of formula I ([…]) and vehicle treated animals (n=7/group) using a PicoPure™ RNA Isolation Kit (Acturus Bioscience Inc, Mountain View, Calif., USA) following the manufacturer's protocol. Briefly, corneal epithelial cells were scraped and whole conjunctiva was cut and placed in 100 μL of extraction buffer and incubated at 42° C. for 30 minutes. The cell extract was loaded onto a preconditioned purified column, which was centrifuged, treated with DNase (Qiagen, Valencia, Calif., USA) and washed twice with two different wash buffers. The RNA was eluded in 12 μL of low ionic strength buffer. The RNA concentration was measured by absorption at 260 nm using a spectrophotometer (NanoDrop 2000, Thermo Scientific, Wilmington, Del., USA) and samples were stored at −80° C. until use. First-strand cDNA was synthesized from 1 μg of total RNA with random hexamers using M-MuLV reverse transcriptase (Ready-To-Go You-Prime First-Strand Beads; Amersham Pharmacia Biotech, Inc., Piscataway, N.J.) as previously described (de Paiva et al., 2006a).
# A cDNA aliquot (1-4 μL) from samples was used for real time PCR in a total volume of 10 μL containing the following per reaction: 0.3 μL of gene specific Taqman probes used and 5 μL of 2× Taqman Fast PCR Master Mix, (Applied Biosystems). Real time PCR was performed on a StepOnePlus™ Real-Time PCR System (Applied Biosystems) and the parameters consisted of pre-denaturation at 95° C. for 22 sec, followed by 40 cycles of denaturation at 95° C. for 1 sec, annealing and extension at 60° C. for 20 sec. Samples and standards were assayed in duplicate. A non-template control and total RNA without retrotranscription were included in all the experiments to evaluate PCR and DNA contamination of the reagents used. The following mouse Taqman probes were used: IL-1α (Mm00439620); MMP-9 (Mm00442991); CXCL9 (Mm004434946); TGF-β1 (Mm00441724) and HPRT-1 (Mm00446968). The HPRT-1 gene was used as an endogenous reference for each reaction. The results of quantitative PCR were analyzed by the comparative CT method where target change=2-ΔΔ CT. The results were normalized by the CT value of HPRT-1 of the untreated control group (de Paiva et al., 2006b).
# Due to skewed distribution of OGD data, the analysis was done on the log 10 scale to make the data more normally distributed. Log 10 OGD data was averaged across two observers and the left and right eyes. The mixed effects ANOVA model included treatment group as a fixed effect and week as a random effect. 95% and 99% confidence intervals were constructed for the disease (5 day DS vs untreated group kept in separate vivarium) and compound treatment effects (treatment vs vehicle). […]
# [2] = biological target: T1, integrin α4 (Homo sapiens, UniProt P13612); assay: IC50/IC90 concentrations and required tissue levels quoted in FIG. 6 legend
# T1 sequence (P13612 34-1032): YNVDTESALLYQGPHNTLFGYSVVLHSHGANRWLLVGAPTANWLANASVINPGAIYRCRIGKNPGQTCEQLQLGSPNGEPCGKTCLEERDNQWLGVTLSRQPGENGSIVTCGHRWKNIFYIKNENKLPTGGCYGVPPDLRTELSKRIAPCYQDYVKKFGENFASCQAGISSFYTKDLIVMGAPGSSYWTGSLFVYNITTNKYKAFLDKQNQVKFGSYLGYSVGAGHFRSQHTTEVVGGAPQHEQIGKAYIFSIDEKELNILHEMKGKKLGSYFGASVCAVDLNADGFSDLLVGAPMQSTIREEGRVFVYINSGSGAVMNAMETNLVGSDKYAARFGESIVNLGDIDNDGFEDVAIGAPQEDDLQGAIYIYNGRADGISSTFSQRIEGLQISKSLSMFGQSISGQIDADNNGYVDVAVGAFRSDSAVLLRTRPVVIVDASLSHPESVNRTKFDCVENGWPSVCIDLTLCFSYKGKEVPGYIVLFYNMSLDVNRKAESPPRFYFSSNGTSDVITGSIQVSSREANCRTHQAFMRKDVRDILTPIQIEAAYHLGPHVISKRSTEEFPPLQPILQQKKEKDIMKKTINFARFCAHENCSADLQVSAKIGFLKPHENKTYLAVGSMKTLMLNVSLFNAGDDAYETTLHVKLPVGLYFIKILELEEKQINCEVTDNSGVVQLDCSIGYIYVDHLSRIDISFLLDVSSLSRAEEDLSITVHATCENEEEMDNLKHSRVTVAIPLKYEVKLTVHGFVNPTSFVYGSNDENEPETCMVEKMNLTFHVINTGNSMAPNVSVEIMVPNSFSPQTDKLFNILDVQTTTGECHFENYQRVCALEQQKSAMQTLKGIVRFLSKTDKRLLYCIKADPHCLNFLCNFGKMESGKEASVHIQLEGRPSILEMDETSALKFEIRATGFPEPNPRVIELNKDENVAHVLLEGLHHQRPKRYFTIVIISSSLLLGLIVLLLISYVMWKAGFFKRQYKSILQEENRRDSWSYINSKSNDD
smiles,measurement,setting,value
"Cc1ccccc1OCC(=O)N[C@@H](CC(C)C)C(=O)N[C@@H](Cc1ccc(OC(=O)N2CCC(C(N)=O)CC2)cc1)C(=O)O [GW559090, (2S)-3-[4-({[4-(Aminocarbonyl)-1-piperidinyl]carbonyl}oxy)phenyl]-2-[((2S)-4-methyl-2-{[2-(2-methylphenoxy)acetyl]amino}pentanoyl)amino]propanoic acid]",CXCL9 transcripts in cornea,[1],significant decrease
same,CXCL-9 expression in conjunctiva,[1],no change
same,IL-1α expression in conjunctiva,[1],no change
same,IL-1α transcripts in cornea,[1],significant decrease
same,MMP-9 expression in conjunctiva,[1],no change
same,MMP-9 transcripts in cornea,[1],significant decrease
same,TGF-β1 expression in conjunctiva,[1],significant reduction
same,TGF-β1 transcripts in cornea,[1],significant decrease
same,IC50,"[2]; FIG. 6 legend, read-out: 1050 concentration (converted)",~8 nM and ~8.38 nM
same,IC90,"[2]; FIG. 6 legend, read-out: IC90 concentration",~80 nM and ~0.048 µg/mL
same,Approximate tissue level required to achieve the 1050 concentration,[2]; if protein binding is 98%,~400 nM and ~240 ng/mL
same,IC90,"[2]; if protein binding is 98%, read-out: Approximate tissue level required to achieve the IC90 concentration",~4 µM and ~2.4 µg/mL
